Laboratory results published in patent US8618068B2, “Methods and low dose regimens for treating red blood cell disorders” (priority 2009, dated 2013).
“Also recorded” adds a separate entry of the source.

Key:
[1] = Phase 1 single dose clinical study, safety; format: in vivo, human
Procedure: The first clinical study was a phase 1, double-blind, placebo-controlled, single dose study of the tolerability, safety and pharmacokinetics of DMB in 32 healthy volunteers. Healthy, fasting adult volunteers received single oral doses of DMB or placebo capsules at one of four dose levels (2 mg/kg, 5 mg/kg, 10 mg/kg and 20 mg/kg). Six subjects received study drug (24 subjects total) and 2 subjects received placebo at each dose level. The 8 placebo subjects received a capsule containing only the excipients from the capsules containing the active agent. Subjects at the 20 mg/kg also received a second dose of study drug after a defined meal, one week following the fasting dose.
Physical examinations, vital signs and neurologic examinations were normal throughout the study. No signs or symptoms of clinical significance were observed. One subject developed transient mild hypotension after dosing, which was clinically asymptomatic, and the Principal Investigator considered this finding to be of no clinical significance. Postural changes in blood pressure and pulse were not evaluated. There were 3 electrocardiogram abnormalities among patients treated with active study medication and 3 among the placebo subjects, all of which were considered to be of no clinical significance. All laboratory studies, including chemistries, coagulation studies, hematology studies and urinalyses were either normal or of no clinical significance except for one subject in whom a urinary tract infection was diagnosed but not disclosed prior to study test article administration. The data are reported for each cohort including the N of subjects that received placebo or study drug. All events were assessed as mild by the Principal Investigator. The reported AEs are shown by Cohort following Table 10. The only AEs considered possibly or probably related to study medication included upper abdominal pain, which occurred in one subject in the 2 mg/kg treatment group, one subject with dizziness in the placebo treatment group, and one subject with dysphoria in the 10 mg/kg treatment group. No subjects discontinued treatment due to AEs and there were no SAEs reported in this study.

[2] = Toxicokinetics, 26-week rat study; format: in vivo, Sprague Dawley rats; details: for AUC(0-inf): both sexes, Sprague Dawley, rat, plasma, po, mean of male and female rats
Procedure: DMB was administered to Sprague Dawley rats daily for 26 weeks at doses of 50, 100 and 500 mg/kg/day via oral gavage. Plasma levels of DMB were measured at 1 to 24 hours post-dose on Days 1 and 181. […] Systemic exposure increased with increasing dose level and was greater than dose-proportional on Day 0 and Day 181. The peak and extent of systemic exposure of Sprague Dawley rats to DMB were similar in males and females. Systemic exposure values on Day 181 ranged from 137% to 218% of the values at Day 0 indicating an accumulation of DMB during this time period.
Toxicokinetic information from the 26-week rat (Table 7) and 26-week dog toxicity studies (Table 8) are compared to systemic exposure (AUC) levels determined in a clinical study.

[3] = Dose range-finding embryo/fetal developmental toxicity in rabbits; format: in vivo, New Zealand White rabbits
Procedure: DMB was administered orally by gavage to 4 groups of 8 time-mated female New Zealand White rabbits once daily from gestation Days 7 through 20 at dosage levels of 50, 150, 300 and 600 mg/kg/day. […] All findings at necropsy occurred sporadically in single females, with similar frequencies in the control group and/or in a non dose-related manner and were considered incidental and unrelated to administration of DMB. Mean fetal weight in the 600 mg/kg/day group was 8.6% lower than the control group. Fetal weights in the 50, 150 and 300 mg/kg/day groups and fetal survival and external morphology at all dosage levels were unaffected by test article administration.

absolute reticulocytes = experiment: Phase 1 repeat-dose clinical study, absolute reticulocytes; format: in vivo, human
Procedure: Mean absolute reticulocytes (10^9 cells/L) in the placebo group at baseline and Day 27 were 51+/−12 and 62+/−20, respectively, which was not statistically significant (p=0.19). Mean absolute reticulocytes increased on average from 50% to 60% above the mean baseline values in the subjects who received study medication. For example, at baseline in Cohort 1 (5 mg/kg, fasted) mean absolute reticulocytes were 50+/−12 and mean peak reticulocytes were 81+/−24, (p=0.02); in Cohort 4 (10 mg/kg) mean baseline reticulocytes were 58+/−8 and mean peak reticulocytes were 84+/−14, (p=0.003), and in Cohort 5 (15 mg/kg; fed), the mean baseline was 46+/−11 and mean peak level was 72+/−11, a 50% increase (p=0.001).

F-cells = F-cells in Bfu-e erythroid progenitor cultures; format: cell-based
[4] = system: micronucleated erythrocytes (PCEs); details: rat, in vivo
Procedure: The potential for DMB to induce formation of micronuclei in vivo was evaluated as part of the initial 14-Day toxicity repeat dose toxicity study in rats administered doses of 0, 200, 600 and 1,000 mg/kg/day for 14 days.

CCC(C)(C)C(=O)[O-].[Na+] [DMB, Sodium 2,2-dimethylbutyrate]
Subject incidence of Abdominal pain, upper ([1]; DMB N = 24): 4% | Subject incidence of Abdominal tenderness ([1]; DMB N = 24): 4% | Subject incidence of Cough ([1]; DMB N = 24): 4% | Subject incidence of Diarrhea ([1]; DMB N = 24): 8% | Subject incidence of Dizziness ([1]; DMB N = 24): 13% | Subject incidence of Dysguesia ([1]; DMB N = 24): 4% | Subject incidence of Dysphoria ([1]; DMB N = 24): 4% | Subject incidence of Ecchymosis ([1]; DMB N = 24): 4% | Subject incidence of Epistaxis ([1]; DMB N = 24): 4% | Subject incidence of Fatigue ([1]; DMB N = 24): 4% | Subject incidence of Headache ([1]; DMB N = 24): 29% | Subject incidence of Insomnia ([1]; DMB N = 24): 4% | Subject incidence of Myalgia ([1]; DMB N = 24): 4% | Subject incidence of Nausea ([1]; DMB N = 24): 8% | Subject incidence of Odynophagia ([1]; DMB N = 24): 4% | Subject incidence of Palpitations ([1]; DMB N = 24): 4% | Subject incidence of Syncope vasovagal ([1]; DMB N = 24): 4% | Subject incidence of URI ([1]; DMB N = 24): 8% | Subject incidence of Vessel puncture site hematoma ([1]; DMB N = 24): 17% | electrocardiogram abnormalities among patients treated with active study medication ([1]; considered of no clinical significance): 3 | SAEs reported ([1]; single doses 2 to 20 mg/kg): no SAEs | clinically significant adverse events ([1]; single doses 2 to 20 mg/kg): no clinically significant adverse events; also recorded: no significant AEs | time of peak plasma concentrations ([2]; Day 0): 1 h | AUC(0-inf) ([2]; 50 mg/kg): 125 µg·h/mL | AUC(0-inf) ([2]; 100 mg/kg): 278 µg·h/mL | AUC(0-inf) ([2]; 500 mg/kg (NOAEL)): 3440 µg·h/mL | rat AUC0-∞ relative to human AUC0-∞ ([2]; rat 50 mg/kg vs human 2 mg/kg): 3.2X | rat AUC0-∞ relative to human AUC0-∞ ([2]; rat 50 mg/kg vs human 5 mg/kg): 0.4X | rat AUC0-∞ relative to human AUC0-∞ ([2]; rat 50 mg/kg vs human 10 mg/kg): 0.2X | rat AUC0-∞ relative to human AUC0-∞ ([2]; rat 50 mg/kg vs human 20 mg/kg): 0.1X | rat AUC0-∞ relative to human AUC0-∞ ([2]; rat 100 mg/kg vs human 2 mg/kg): 7.3X | rat AUC0-∞ relative to human AUC0-∞ ([2]; rat 100 mg/kg vs human 5 mg/kg): 0.9X | rat AUC0-∞ relative to human AUC0-∞ ([2]; rat 100 mg/kg vs human 10 mg/kg): 0.5X | rat AUC0-∞ relative to human AUC0-∞ ([2]; rat 100 mg/kg vs human 20 mg/kg): 0.2X | rat AUC0-∞ relative to human AUC0-∞ ([2]; rat 500 mg/kg (NOAEL) vs human 2 mg/kg): 91X | rat AUC0-∞ relative to human AUC0-∞ ([2]; rat 500 mg/kg (NOAEL) vs human 5 mg/kg): 10.7X | rat AUC0-∞ relative to human AUC0-∞ ([2]; rat 500 mg/kg (NOAEL) vs human 10 mg/kg): 6.4X | rat AUC0-∞ relative to human AUC0-∞ ([2]; rat 500 mg/kg (NOAEL) vs human 20 mg/kg): 2.9 X | maternal body weight gains and food consumption ([3]; 300 mg/kg/day): Reduced mean maternal body weight gains and corresponding reduced mean food consumption | Mean fetal weight lower than the control group ([3]; 600 mg/kg/day): 8.6% | acceptability of dosage for a definitive embryo/fetal development study ([3]; 600 mg/kg/day, maternal and embryo/fetal toxicity): considered unacceptable | maternal or fetal test article-related effects ([3]; 50 and 150 mg/kg/day): no maternal or fetal test article-related effects | maternal macroscopic findings ([3]; any dosage level): No remarkable maternal macroscopic findings | fetal weights (50, 150, 300 mg/kg/day), fetal survival and external morphology (all dosage levels) ([3]; rabbit, in vivo): unaffected | mean peak reticulocytes (absolute reticulocytes; Cohort 1 (5 mg/kg, fasted), baseline 50+/−12, p=0.02): 81+/−24 10^9 cells/L | mean peak reticulocytes (absolute reticulocytes; Cohort 4 (10 mg/kg), baseline 58+/−8, p=0.003): 84+/−14 10^9 cells/L | increase of reticulocytes, baseline to peak (absolute reticulocytes; Cohort 5 (15 mg/kg; fed)): 50% | mean peak reticulocytes (absolute reticulocytes; Cohort 5 (15 mg/kg; fed), baseline 46+/−11, p=0.001): 72+/−11 10^9 cells/L | F-cells increase above F-cell levels in control cultures (F-cells): 32-71% | plasma levels of DMB at which micronucleus activity occurred ([4]; male, Sprague Dawley): exceeding 500 μg/mL | micronucleated PCEs, mean ([4]; male, Sprague Dawley, 14 days): 3.3±0.16 MN PCEs/1,000 PCEs | frequency of micronucleated erythrocytes (PCEs) compared to controls [4]: statistically significant increase | increase in micronucleated PCEs in female groups [4]: not observed | percent PCEs [4]: no effect | potential to cause genotoxicity (weight of evidence) [4]: limited potential to cause genotoxicity
